Source: patent US20260308145A1, “CDK2 INHIBITORS AND METHODS OF USING SAME” (Shenzhen lonova Life Science Co., Ltd., priority 2023, published 2026)

Columns and labels:
Assay type in all cases: biochemical
CDK1/cyclinB1 = target: T1, CDK1/cyclinB1 (Homo sapiens, UniProt P06493); experiment: Cyclin-dependent kinase activity assay (continuous ATP coupling assay), CDK1/cyclinB1; conditions: CDK1/cyclinB1 10 nM, ATP 200 μM, Histone1 copeptide 100 μM, 15 min preincubation, pH 7.5, 1% DMSO
T1 construct: purchased Carna Biosciences 04-102
Procedure, shortened: (§1)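 PK/LDH-coupled continuous assay, ATP at each kinase's Km, Tris pH 7.5 with 1% DMSO final; enzyme preincubated 15 min with compound (10 μM to 0.05 nM, 1:3), NADH fluorescence decrease (ex 340/em 460) gave velocities. IC50 by 4-variable fit; Ki by quadratic/Morrison fit.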

CDK2/cyclinE1 = target: T2, CDK2/cyclinE1 (Homo sapiens, UniProt P24941); experiment: Cyclin-dependent kinase activity assay (continuous ATP coupling assay), CDK2/cyclinE1; conditions: CDK2/cyclinE1 5 nM, ATP 300 μM, Rb copeptide 100 μM, 15 min preincubation, pH 7.5, 1% DMSO
T2 construct: purchased Carna Biosciences 04-165
Procedure, shortened: as §1

CDK4/cyclinD3 = target: T3, CDK4/cyclinD3 (Homo sapiens, UniProt P11802); experiment: Cyclin-dependent kinase activity assay (continuous ATP coupling assay), CDK4/cyclinD3; conditions: CDK4/cyclinD3 60 nM, ATP 500 μM, Rb copeptide 500 μM, 15 min preincubation, pH 7.5, 1% DMSO
T3 construct: purchased Carna Biosciences 04-105
Procedure, shortened: as §1

CDK6/cyclinD3 = target: T4, CDK6/cyclinD3 (Homo sapiens, UniProt Q00534); experiment: Cyclin-dependent kinase activity assay (continuous ATP coupling assay), CDK6/cyclinD3; conditions: CDK6/cyclinD3 25 nM, ATP 500 μM, Rb copeptide 500 μM, 15 min preincubation, pH 7.5, 1% DMSO
T4 construct: purchased Carna Biosciences 04-107
Procedure, shortened: as §1

T4 sequence (Q00534 whole entry): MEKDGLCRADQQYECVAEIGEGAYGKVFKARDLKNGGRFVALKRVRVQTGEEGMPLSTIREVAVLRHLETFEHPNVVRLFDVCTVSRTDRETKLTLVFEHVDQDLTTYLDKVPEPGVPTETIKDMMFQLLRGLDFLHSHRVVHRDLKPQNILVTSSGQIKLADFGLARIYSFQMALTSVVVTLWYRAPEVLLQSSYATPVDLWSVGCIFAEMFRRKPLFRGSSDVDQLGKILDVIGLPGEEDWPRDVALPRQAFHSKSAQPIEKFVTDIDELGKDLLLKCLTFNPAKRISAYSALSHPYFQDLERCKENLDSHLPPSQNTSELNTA
T4 sequence (P30281 whole entry partner): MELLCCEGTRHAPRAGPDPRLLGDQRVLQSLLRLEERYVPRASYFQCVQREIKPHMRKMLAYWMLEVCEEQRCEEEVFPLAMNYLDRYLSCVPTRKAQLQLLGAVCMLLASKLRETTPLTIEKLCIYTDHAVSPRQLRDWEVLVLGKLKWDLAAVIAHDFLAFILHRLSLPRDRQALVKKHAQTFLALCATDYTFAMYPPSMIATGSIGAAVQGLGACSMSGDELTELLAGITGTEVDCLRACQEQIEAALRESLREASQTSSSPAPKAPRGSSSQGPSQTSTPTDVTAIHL
T3 sequence (P11802 whole entry): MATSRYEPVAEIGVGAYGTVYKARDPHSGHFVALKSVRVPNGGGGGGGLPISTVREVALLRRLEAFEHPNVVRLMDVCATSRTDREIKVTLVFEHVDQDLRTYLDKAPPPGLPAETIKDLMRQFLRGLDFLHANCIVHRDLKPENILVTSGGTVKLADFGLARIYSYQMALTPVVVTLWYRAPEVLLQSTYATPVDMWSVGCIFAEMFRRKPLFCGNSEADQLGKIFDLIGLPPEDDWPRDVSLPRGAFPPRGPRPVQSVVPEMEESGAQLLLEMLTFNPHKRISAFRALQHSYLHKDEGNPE
T3 sequence (P30281 whole entry partner): as the sequence (P30281 whole entry partner) above
T1 sequence (P06493 whole entry): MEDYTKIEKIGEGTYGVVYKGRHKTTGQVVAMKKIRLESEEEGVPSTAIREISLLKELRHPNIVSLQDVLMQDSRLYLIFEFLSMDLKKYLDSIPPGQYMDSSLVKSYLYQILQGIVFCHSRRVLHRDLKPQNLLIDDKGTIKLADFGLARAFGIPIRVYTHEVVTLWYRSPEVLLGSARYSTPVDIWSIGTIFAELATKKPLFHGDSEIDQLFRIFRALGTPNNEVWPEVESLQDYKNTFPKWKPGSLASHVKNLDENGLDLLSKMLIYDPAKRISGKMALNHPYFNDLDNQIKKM
T1 sequence (P14635 whole entry partner): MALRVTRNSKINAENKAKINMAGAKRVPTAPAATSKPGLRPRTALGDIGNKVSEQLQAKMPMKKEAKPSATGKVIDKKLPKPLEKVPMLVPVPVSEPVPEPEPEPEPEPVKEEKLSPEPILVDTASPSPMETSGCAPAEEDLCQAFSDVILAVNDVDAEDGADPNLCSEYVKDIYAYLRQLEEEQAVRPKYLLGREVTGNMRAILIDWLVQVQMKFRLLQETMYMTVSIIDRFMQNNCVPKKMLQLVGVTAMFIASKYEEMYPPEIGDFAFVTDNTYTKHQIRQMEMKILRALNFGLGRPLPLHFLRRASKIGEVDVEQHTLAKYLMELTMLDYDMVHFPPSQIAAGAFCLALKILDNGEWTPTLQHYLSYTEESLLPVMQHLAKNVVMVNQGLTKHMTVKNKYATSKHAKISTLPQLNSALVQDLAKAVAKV

Structure (SMILES)	IC50 (CDK1/cyclinB1) [µM]	IC50 (CDK2/cyclinE1) [µM]	IC50 (CDK4/cyclinD3) [µM]	IC50 (CDK6/cyclinD3) [µM]
CNS(=O)(=O)c1ccc(Nc2ncc(C(F)(F)F)c(-n3cc(C4CN(C)C4)cn3)n2)cc1 [Example 97]	0.01 to 0.1	≤ 0.01	0.01 to 0.1	≥ 0.1
CNS(=O)(=O)c1ccc(Nc2ncc(C(F)(F)F)c(-n3cc(C4CN(S(C)(=O)=O)C4)cn3)n2)cc1 [Example 98]	≥ 0.1	0.01 to 0.1	≥ 0.1	≥ 0.1
CNS(=O)(=O)c1ccc(Nc2ncc(C(F)(F)F)c(-n3cc(C4CN(C(C)=O)C4)cn3)n2)cc1 [Example 99]	≥ 0.1	0.01 to 0.1	≥ 0.1	≥ 0.1
CNS(=O)(=O)c1ccc(Nc2ncc(C(F)(F)F)c(-n3cc(N4CC(O)C4)cn3)n2)cc1 [Example 100]	0.01 to 0.1	≤ 0.01	≥ 0.1	≥ 0.1
CNS(=O)(=O)c1ccc(Nc2ncc(C(F)(F)F)c(-n3cc(C4CCC4)cn3)n2)cc1 [Example 101]	≥ 0.1	0.01 to 0.1	≥ 0.1	≥ 0.1
CNS(=O)(=O)c1ccc(Nc2ncc(C(F)(F)F)c(-n3cc(C4COC4)cn3)n2)cc1 [Example 102]	≥ 0.1	≤ 0.01	0.01 to 0.1	0.01 to 0.1
CNS(=O)(=O)c1ccc(Nc2ncc(C(F)(F)F)c(-n3cc([C@H]4C[C@@H](O)C4)cn3)n2)cc1 [Example 103, 4-[[4-[4-(3-hydroxycyclobutyl)pyrazol-1-yl]-5-(trifluoromethyl)pyrimidin-2-yl]amino]-N-methyl-benzene sulfonamide]	0.01 to 0.1	≤ 0.01	0.01 to 0.1	0.01 to 0.1
CNS(=O)(=O)c1ccc(Nc2ncc(C(F)(F)F)c(-n3cc([C@H]4C[C@H](O)C4)cn3)n2)cc1 [Example 106, 4-((4-(4-((1r,3r)-3-hydroxycyclobutyl)-1H-pyrazol-1-yl)-5-(trifluoromethyl)pyrimidin-2-yl)amino)-N-methylbenzenesulfonamide]	≥ 0.1	0.01 to 0.1	≥ 0.1	≥ 0.1
CC(C)(O)CCc1cnn(-c2nc(NC3CCN(S(C)(=O)=O)CC3)ncc2C(F)(F)F)c1 [Example 109]	≥ 0.1	0.01 to 0.1	0.01 to 0.1	0.01 to 0.1
CC(O)CNS(=O)(=O)c1ccc(Nc2ncc(C(F)(F)F)c(-n3cccn3)n2)cc1 (centres unmarked) [Example 110]	≥ 0.1	≤ 0.01	≥ 0.1	≥ 0.1
CC(C)(O)CNS(=O)(=O)c1ccc(Nc2ncc(C(F)(F)F)c(-n3cccn3)n2)cc1 [Example 111]	≥ 0.1	≤ 0.01	≥ 0.1	≥ 0.1
O=S(=O)(NCCCO)c1ccc(Nc2ncc(C(F)(F)F)c(-n3cccn3)n2)cc1 [Example 112]	≥ 0.1	≤ 0.01	≥ 0.1	≥ 0.1
O=S(=O)(NCCCCO)c1ccc(Nc2ncc(C(F)(F)F)c(-n3cccn3)n2)cc1 [Example 113]	≥ 0.1	≤ 0.01	≥ 0.1	≥ 0.1
Cc1cnc(Nc2ccc(S(=O)(=O)NCCO)cc2)nc1-n1cccn1 [Example 114]	≥ 0.1	0.01 to 0.1	≥ 0.1	≥ 0.1
O=S(=O)(NCCO)c1ccc(Nc2ncc(F)c(-n3cccn3)n2)cc1 [Example 115]	≥ 0.1	0.01 to 0.1	≥ 0.1	≥ 0.1
O=S(=O)(NCCO)c1ccc(Nc2ncc(C(F)F)c(-n3cccn3)n2)cc1 [Example 116, 4-((5-(difluoromethyl)-4-(1H-pyrazol-1-yl)pyrimidin-2-yl)amino)-N-(2-hydroxyethyl)benzenesulfonamide]	≥ 0.1	0.01 to 0.1	≥ 0.1	≥ 0.1
O=S(=O)(NCCO)c1ccc(Nc2ncc(Cl)c(-n3cccn3)n2)cc1 [Example 117]	0.01 to 0.1	≤ 0.01	≥ 0.1	≥ 0.1
O=S(=O)(NCCO)c1ccc(Nc2nccc(-n3cccn3)n2)cc1 [Example 118]	≥ 0.1	≥ 0.1	≥ 0.1	≥ 0.1
N#Cc1cnc(Nc2ccc(S(=O)(=O)NCCO)cc2)nc1-n1cccn1 [Example 119]	≥ 0.1	0.01 to 0.1	≥ 0.1	0.01 to 0.1
CS(=O)(=O)Nc1ccc(Nc2ncc(C(F)(F)F)c(-n3cccn3)n2)cc1 [Example 120]	≥ 0.1	0.01 to 0.1	≥ 0.1	≥ 0.1
CS(=O)(=O)Nc1cccc(Nc2ncc(C(F)(F)F)c(-n3cccn3)n2)c1 [Example 121]	≥ 0.1	0.01 to 0.1	≥ 0.1	≥ 0.1
CNS(=O)(=O)c1cccc(Nc2ncc(C(F)(F)F)c(-n3cccn3)n2)c1 [Example 122]	≥ 0.1	≥ 0.1	≥ 0.1	≥ 0.1
O=S(=O)(NCCO)c1ccc(Nc2ncc(C(F)(F)F)c(-n3cccn3)n2)cc1F [Example 123]	≥ 0.1	0.01 to 0.1	≥ 0.1	≥ 0.1
O=S(=O)(NCCO)c1ccc(Nc2ncc(C(F)(F)F)c(-n3cccn3)n2)c(F)c1 [Example 124]	≥ 0.1	≤ 0.01	≥ 0.1	≥ 0.1
Cc1cc(Nc2ncc(C(F)(F)F)c(-n3cccn3)n2)ccc1S(=O)(=O)NCCO [Example 125]	≥ 0.1	0.01 to 0.1	≥ 0.1	≥ 0.1

The next lines start with the values.

IC50 (CDK1/cyclinB1) [µM]	IC50 (CDK2/cyclinE1) [µM]	IC50 (CDK4/cyclinD3) [µM]	IC50 (CDK6/cyclinD3) [µM]	Structure (SMILES)
≥ 0.1	≤ 0.01	≥ 0.1	≥ 0.1	Cc1cc(S(=O)(=O)NCCO)ccc1Nc1ncc(C(F)(F)F)c(-n2cccn2)n1 [Example 126]
≥ 0.1	0.01 to 0.1	≥ 0.1	≥ 0.1	COCCNS(=O)(=O)c1ccc(Nc2ncc(C(F)(F)F)c(-n3cccn3)n2)cc1 [Example 127]
≥ 0.1	≥ 0.1	≥ 0.1	≥ 0.1	O=S(=O)(NCCOC(F)(F)F)c1ccc(Nc2ncc(C(F)(F)F)c(-n3cccn3)n2)cc1 [Example 128]
≥ 0.1	≥ 0.1	≥ 0.1	≥ 0.1	O=S(=O)(NCCOC1CC1)c1ccc(Nc2ncc(C(F)(F)F)c(-n3cccn3)n2)cc1 [Example 129]
≥ 0.1	0.01 to 0.1	≥ 0.1	≥ 0.1	O=S(=O)(CCCO)c1ccc(Nc2ncc(C(F)(F)F)c(-n3cccn3)n2)cc1 [Example 130, 3-[4-[[4-pyrazol-1-yl-5-(trifluoromethyl)pyrimidin-2-yl]amino]phenyl]sulfonylpropan-1-ol]
≥ 0.1	≤ 0.01	≥ 0.1	≥ 0.1	O=S(=O)(NCC1(O)CC1)c1ccc(Nc2ncc(C(F)(F)F)c(-n3cccn3)n2)cc1 [Example 131]
≥ 0.1	0.01 to 0.1	≥ 0.1	≥ 0.1	O=S(=O)(NCC1(CO)CC1)c1ccc(Nc2ncc(C(F)(F)F)c(-n3cccn3)n2)cc1 [Example 132]
0.01 to 0.1	≤ 0.01	≥ 0.1	≥ 0.1	CC(CO)NS(=O)(=O)c1ccc(Nc2ncc(C(F)(F)F)c(-n3cccn3)n2)cc1 (centres unmarked) [Example 133]
≥ 0.1	≤ 0.01	≥ 0.1	≥ 0.1	CC(C)(CO)NS(=O)(=O)c1ccc(Nc2ncc(C(F)(F)F)c(-n3cccn3)n2)cc1 [Example 134]
≥ 0.1	≤ 0.01	≥ 0.1	≥ 0.1	O=S(=O)(NC1(CO)CC1)c1ccc(Nc2ncc(C(F)(F)F)c(-n3cccn3)n2)cc1 [Example 135]
≥ 0.1	≤ 0.01	≥ 0.1	≥ 0.1	O=S(=O)(NCCO)c1ccc(Nc2ncc(C(F)(F)F)c(-n3cccn3)n2)cn1 [Example 136, N-(2-hydroxyethyl)-5-[[4-pyrazol-1-yl-5-(trifluoromethyl)pyrimidin-2-yl]amino]pyridine-2-sulfonamide]
≥ 0.1	≥ 0.1	≥ 0.1	≥ 0.1	O=S(=O)(NCCO)c1ccc(Nc2ncc(C(F)(F)F)c(-n3cccn3)n2)nc1 [Example 137]
≥ 0.1	≤ 0.01	≥ 0.1	≥ 0.1	O=C(O)CNS(=O)(=O)c1ccc(Nc2ncc(C(F)(F)F)c(-n3cccn3)n2)cc1 [Example 138, ((4-((4-(1H-pyrazol-1-yl)-5-(trifluoromethyl)pyrimidin-2-yl)amino)phenyl)sulfonyl)glycine]
